Experimental data: US6933304B2, “Heteroarylalkanoic acids as integrin receptor antagonists” (Pharmacia Corporation, priority 2000, dated 2005)

Columns and labels:
[1] = molecular target: T1, αVβ6 (HT-29 human colon carcinoma cells) (Homo sapiens, UniProt P06756+P18564); assay: HT-29 cell adhesion assay (adhesion to immobilized LAP); type: cell-based; conditions: selectivity ratio: IC50 αVβ6 (HT-29) over IC50 β3
T1 construct: endogenous in cells; host or cells: HT-29 human colon carcinoma cells
Protocol: To evaluate compound potency for membrane-bound αVβ6 an additional cell-based adhesion assay was established using the HT-29 human colon carcinoma cell line. High surface expression of αVβ6 on HT-29 cells was confirmed by flow cytometry. Conditions were established in which cell adhesion to immobilized human latency associated peptide (LAP) was mediated by the αVβ6, as determined by a panel of integrin-specific, neutralizing monoclonal antibodies. Briefly, cells were incubated with inhibitor in the presence of 200 uM Mn^2+, allowed to adhere to immobilized LAP, washed, and adherent cells are detected by quantifying endogenous alkaline phosphatase using para-nitrophenyl phosphate. An 8-point dose-response curve using either 10-fold or 3-fold dilutions of compound was evaluated by fitting a four-parameter logistic, nonlinear model (using SAS). The compounds evaluated were relatively ineffective at inhibition of αVβ6-mediated cell adhesion. The selective antagonism of the αVβ3 integrin is viewed as desirable in this class of compounds, as αVβ6 may also play a role in normal physiological processes of tissue repair and cellular turnover that routinely occur in the skin and pulmonary tissues.

[2] = molecular target: T2, Human fibrinogen receptor (IIb/IIIa) (Homo sapiens, UniProt P05106+P08514); assay: Purified IIb/IIIa receptor assay (solid phase receptor assay, SPRA); type: binding; conditions: selectivity ratio: IC50 αIIbβ3 (solid phase receptor assay) over IC50 β3
T2 construct: Human fibrinogen receptor (IIb/IIIa) was purified from outdated platelets; from tissue; host or cells: outdated human platelets
T2 sequence (P08514 32-887 limits assumed): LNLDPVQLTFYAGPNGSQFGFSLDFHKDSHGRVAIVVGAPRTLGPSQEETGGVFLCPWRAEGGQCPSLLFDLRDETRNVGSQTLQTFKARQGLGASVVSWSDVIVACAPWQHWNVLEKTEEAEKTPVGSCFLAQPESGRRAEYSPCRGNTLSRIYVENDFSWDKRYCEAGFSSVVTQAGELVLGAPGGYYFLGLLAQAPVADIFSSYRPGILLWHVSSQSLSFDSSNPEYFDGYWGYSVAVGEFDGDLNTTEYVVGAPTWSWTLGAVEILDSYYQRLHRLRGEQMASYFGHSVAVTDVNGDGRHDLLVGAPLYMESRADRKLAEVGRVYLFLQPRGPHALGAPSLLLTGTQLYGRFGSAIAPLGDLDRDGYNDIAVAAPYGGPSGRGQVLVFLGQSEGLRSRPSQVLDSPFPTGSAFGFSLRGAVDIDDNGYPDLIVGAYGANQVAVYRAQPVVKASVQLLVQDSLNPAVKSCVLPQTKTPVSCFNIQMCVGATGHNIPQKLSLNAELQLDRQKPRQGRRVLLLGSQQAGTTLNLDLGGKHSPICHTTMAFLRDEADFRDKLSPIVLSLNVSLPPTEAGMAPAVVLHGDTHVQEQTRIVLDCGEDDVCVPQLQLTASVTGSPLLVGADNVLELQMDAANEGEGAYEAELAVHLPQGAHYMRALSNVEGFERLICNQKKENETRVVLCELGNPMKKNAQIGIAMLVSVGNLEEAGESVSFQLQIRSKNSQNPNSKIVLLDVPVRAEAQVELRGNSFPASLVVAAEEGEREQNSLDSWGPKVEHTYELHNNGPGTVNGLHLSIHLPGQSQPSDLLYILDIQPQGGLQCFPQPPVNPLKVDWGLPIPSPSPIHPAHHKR
T2 sequence (P08514 891-1039 partner limits assumed): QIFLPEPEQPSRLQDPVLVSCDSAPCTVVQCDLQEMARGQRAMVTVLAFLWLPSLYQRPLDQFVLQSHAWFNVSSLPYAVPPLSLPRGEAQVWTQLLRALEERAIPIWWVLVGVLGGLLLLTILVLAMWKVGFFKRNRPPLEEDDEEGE
T2 sequence (P05106 27-788): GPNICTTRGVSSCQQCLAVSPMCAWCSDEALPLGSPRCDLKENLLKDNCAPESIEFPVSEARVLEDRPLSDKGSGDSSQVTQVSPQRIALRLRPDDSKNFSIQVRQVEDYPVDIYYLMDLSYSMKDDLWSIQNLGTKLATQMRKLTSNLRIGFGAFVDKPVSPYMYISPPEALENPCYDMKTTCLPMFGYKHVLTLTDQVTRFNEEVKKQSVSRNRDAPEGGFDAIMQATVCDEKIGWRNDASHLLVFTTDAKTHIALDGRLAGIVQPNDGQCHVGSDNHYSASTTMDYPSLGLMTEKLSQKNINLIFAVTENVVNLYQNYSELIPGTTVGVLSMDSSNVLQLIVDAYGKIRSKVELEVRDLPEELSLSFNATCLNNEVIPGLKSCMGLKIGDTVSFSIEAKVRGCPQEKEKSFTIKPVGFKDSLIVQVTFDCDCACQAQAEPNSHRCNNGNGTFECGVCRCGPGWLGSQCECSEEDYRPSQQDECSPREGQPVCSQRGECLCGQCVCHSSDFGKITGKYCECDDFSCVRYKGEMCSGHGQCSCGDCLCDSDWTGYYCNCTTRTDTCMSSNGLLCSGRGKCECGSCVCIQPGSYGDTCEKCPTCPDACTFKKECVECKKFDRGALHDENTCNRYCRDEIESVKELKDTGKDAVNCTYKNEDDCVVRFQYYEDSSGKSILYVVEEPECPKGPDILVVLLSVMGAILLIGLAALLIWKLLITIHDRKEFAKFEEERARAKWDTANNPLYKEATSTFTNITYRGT
From the text: Human fibrinogen receptor (IIb/IIIa) was purified from outdated platelets. (Pytela, R., Pierschbacher, M. D., Argraves, S., Suzuki, S., and Rouslahti, E. “Arginine-Glycine-Aspartic acid adhesion receptors”, Methods in Enzymology 144(1987):475-489.) Human vitronectin was purified from fresh frozen plasma as described in Yatohgo, T., Izumi, M., Kashiwagi, H., and Hayashi, M., “Novel purification of vitronectin from human plasma by heparin affinity chromatography,” Cell Structure and Function 13(1988):281-292. Biotinylated human vitronectin was prepared by coupling NHS-biotin from Pierce Chemical Company (Rockford, IL) to purified vitronectin as previously described. (Charo, I. F., Nannizzi, L., Phillips, D. R., Hsu, M. A., Scarborough, R. M., “Inhibition of fibrinogen binding to GP IIb/IIIa by a GP IIIa peptide”, J. Biol. Chem. 266(3)(1991): 1415-1421.) Assay buffer, OPD substrate tablets, and RIA grade BSA were obtained from Sigma (St. Louis, Mo.). Anti-biotin antibody was obtained from Sigma (St. Louis, Mo.). Nalge Nunc-Immuno microtiter plates were obtained from (Rochester, N.Y.). ADP reagent was obtained from Sigma (St. Louis, Mo.).
This assay is essentially the same reported in Niiya, K., Hodson, E., Bader, R., Byers-Ward, V. Koziol, J. A., Plow, E. F. and Ruggeri, Z. M., “Increased surface expression of the membrane glycoprotein IIb/IIIa complex induced by platelet activation: Relationships to the binding of fibrinogen and platelet aggregation”, Blood 70(1987):475-483. The purified human fibrinogen receptor (IIb/IIIa) was diluted from stock solutions to 1.0 μg/mL in Tris-buffered saline containing 1.0 mM Ca^++, Mg^++, and Mn^++, pH 7.4 (TBS^+++). The diluted receptor was immediately transferred to Nalge Nunc-Immuno microtiter plates at 100 μL/well (100 ng receptor/well). The plates were sealed and incubated overnight at 4° C. to allow the receptors to bind to the wells. All remaining steps were at room temperature. The assay plates were emptied and 200 μL of 1% RIA grade BSA in TBS^+++ (TBS^+++/BSA) were added to block exposed plastic surfaces. Following a 2 hour incubation, the assay plates were washed with TBS^+++ using a 96 well plate washer. Logarithmic serial dilution of the test compound and controls were made starting at a stock concentration of […] and using 2 nM biotinylated vitronectin in TBS^+++/BSA as the diluent. This premixing of labeled ligand with test (or control) ligand, and subsequent transfer of 50 μL aliquots to the assay plate was carried out with a CETUS Propette robot; the final concentration of the labeled ligand was 1 nM and the highest concentration of test compound was 1.0×10^−4 M. The competition occurred for two hours after which all wells were washed with a plate washer as before. Affinity purified horseradish peroxidase labeled goat anti-biotin antibody was diluted 1:2000 in TBS^+++/BSA and 125 μL were added to each well. After 45 minutes, the plates were washed and incubated with […] substrate in 100 mM/L citrate buffer, pH 5.0. The plate was read with a microtiter plate reader at a wavelength of 450 nm and when the maximum-binding control wells reached an absorbance of about 1.0, the final A450 were recorded for analysis. The data were analyzed using a macro written for use with the EXCELJ spreadsheet program. The mean, standard deviation, and %CV were determined for duplicate concentrations. The mean A450 values were normalized to the mean of four maximum-binding controls (no competitor added)(B-MAX). The normalized values were subjected to a four parameter curve fit algorithm, [Robard et al., Int.

[3] = molecular target: T3, αVβ3 integrin (293-β3 cells) (Homo sapiens, UniProt P05106+P06756); assay: 293-β3 cell adhesion assay (adhesion to immobilized vitronectin); type: cell-based; conditions: 200 uM Mn2+, read-out: 293-β3 (IC50 <10 μM)
T3 construct: expressed in transfected cells; host or cells: 293 human embryonic kidney cells (293-β3)
T3 sequence (P06756 31-889 limits assumed): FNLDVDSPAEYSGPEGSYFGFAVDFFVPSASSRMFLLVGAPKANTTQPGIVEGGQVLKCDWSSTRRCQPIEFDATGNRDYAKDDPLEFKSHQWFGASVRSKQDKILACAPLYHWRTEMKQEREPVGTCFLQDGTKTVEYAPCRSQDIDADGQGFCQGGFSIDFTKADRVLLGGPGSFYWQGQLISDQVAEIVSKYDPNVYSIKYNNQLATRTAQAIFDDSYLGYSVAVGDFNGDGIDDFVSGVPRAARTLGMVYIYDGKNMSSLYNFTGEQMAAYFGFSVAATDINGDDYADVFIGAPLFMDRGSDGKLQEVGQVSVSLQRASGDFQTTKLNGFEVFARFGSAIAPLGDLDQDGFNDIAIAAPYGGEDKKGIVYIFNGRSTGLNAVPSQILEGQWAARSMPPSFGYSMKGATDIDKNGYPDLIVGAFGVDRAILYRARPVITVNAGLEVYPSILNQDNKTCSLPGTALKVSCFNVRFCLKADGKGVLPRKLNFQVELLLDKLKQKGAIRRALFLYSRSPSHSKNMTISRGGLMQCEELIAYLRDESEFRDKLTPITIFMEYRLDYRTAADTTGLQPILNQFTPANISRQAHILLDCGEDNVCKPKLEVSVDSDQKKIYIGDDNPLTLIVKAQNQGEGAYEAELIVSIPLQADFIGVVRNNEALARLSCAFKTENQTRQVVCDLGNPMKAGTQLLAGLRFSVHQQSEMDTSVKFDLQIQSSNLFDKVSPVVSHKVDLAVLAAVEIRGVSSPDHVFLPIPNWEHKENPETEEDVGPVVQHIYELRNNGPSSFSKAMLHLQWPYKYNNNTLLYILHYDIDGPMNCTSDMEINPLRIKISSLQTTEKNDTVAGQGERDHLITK
T3 sequence (P06756 891-1048 partner limits assumed): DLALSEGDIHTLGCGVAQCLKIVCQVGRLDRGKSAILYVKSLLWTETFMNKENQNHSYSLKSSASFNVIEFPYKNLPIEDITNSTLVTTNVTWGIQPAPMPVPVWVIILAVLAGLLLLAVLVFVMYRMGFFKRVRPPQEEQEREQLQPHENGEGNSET
T3 sequence (P05106 27-788): as the sequence (P05106 27-788) above
From the text: While the β3 subunit of αVβ3 is only known to complex with αV or αIIb, the αV subunit complexes with multiple β subunits. The three αV integrins most homologous with αVβ3 are αVβ1, αVβ5 and αVβ6, with 43%, 56% and 47% amino acid identity in the β subunits, respectively. To evaluate the selectivity of compounds between the integrins αVβ3 and αVβ6, cell-based assays were established using the 293 human embryonic kidney cell line. 293 cells express αVβ1, but little to no detectable αVβ3 or αVβ6. cDNAs for β3 and β6 were transfected separately into 293 cells to generate 293-β3 and 293-β6 cells, respectively. High surface expression of αVβ3 and αVβ6 was confirmed by flow cytometry. Conditions were established for each cell line in which cell adhesion to immobilized human vitronectin was mediated by the appropriate integrin, as determined by a panel of integrin-specific, neutralizing monoclonal antibodies. Briefly, cells were incubated with inhibitor in the presence of 200 uM Mn^2+, allowed to adhere to immobilized vitronectin, washed, and adherent cells are detected endogenous alkaline phosphatase and para-nitrophenyl phosphate. An 8-point dose-response curve using either 10-fold or 3-fold dilutions of compound was evaluated by fitting a four-parameter logistic, nonlinear model (using SAS).

T1 sequence (P06756 31-889 limits assumed): as the sequence (P06756 31-889 limits assumed) above
T1 sequence (P06756 891-1048 partner limits assumed): as the sequence (P06756 891-1048 partner limits assumed) above
T1 sequence (P18564 22-788): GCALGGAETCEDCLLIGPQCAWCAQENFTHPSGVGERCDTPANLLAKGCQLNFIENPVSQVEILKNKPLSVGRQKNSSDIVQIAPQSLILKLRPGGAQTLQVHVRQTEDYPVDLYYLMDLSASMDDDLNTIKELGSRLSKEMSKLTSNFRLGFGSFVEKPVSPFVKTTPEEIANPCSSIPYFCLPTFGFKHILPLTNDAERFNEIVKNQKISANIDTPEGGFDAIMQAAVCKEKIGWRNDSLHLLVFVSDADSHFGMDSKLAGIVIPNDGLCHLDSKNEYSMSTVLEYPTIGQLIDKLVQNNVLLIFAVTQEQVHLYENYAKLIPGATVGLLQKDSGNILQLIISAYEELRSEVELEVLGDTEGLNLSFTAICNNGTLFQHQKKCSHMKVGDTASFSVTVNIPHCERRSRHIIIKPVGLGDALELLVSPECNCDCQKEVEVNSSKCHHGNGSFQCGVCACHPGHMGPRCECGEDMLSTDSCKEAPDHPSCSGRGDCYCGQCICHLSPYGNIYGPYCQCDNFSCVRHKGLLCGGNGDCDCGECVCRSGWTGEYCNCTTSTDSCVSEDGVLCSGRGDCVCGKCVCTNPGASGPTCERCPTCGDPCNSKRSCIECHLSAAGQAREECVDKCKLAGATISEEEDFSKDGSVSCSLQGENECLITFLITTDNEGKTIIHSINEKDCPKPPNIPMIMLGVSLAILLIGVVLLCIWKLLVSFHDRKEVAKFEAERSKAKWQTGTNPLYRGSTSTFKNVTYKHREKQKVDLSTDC

HT-29 β-6 Selectivity* (β6/β3) [1]	SPRA AIIbB3 Selectivity* IIbIIIa/β3 [2]	IC50 [3] [µM]	SMILES
+++ (Selectivity Ratio >100 +++)	++ (Selectivity Ratio of 10-100 ++)	< 10	O=C(O)C(F)(F)F.O=C(O)CC1(Cc2nc(CCCCNc3ccccn3)no2)CCCC1 [Example 4, [1-({3-[4-(pyridin-2-ylamino)butyl]-1,2,4-oxadiazol-5-yl}methyl)cyclopentyl]-acetic acid]
+++ (Selectivity Ratio >100 +++)	+++ (Selectivity Ratio >100 +++)	< 10	CC(C)(CC(=O)O)Cc1nc(CCCc2ccc3c(n2)NCCC3)no1.O=C(O)C(F)(F)F [Example 12, 3,3-dimethyl-4-{3-[3-(5,6,7,8-tetrahydro-1,8-naphthyridin-2-yl)propyl]-1,2,4-oxadiazol-5-yl}butanoic acid]
+++ (Selectivity Ratio >100 +++)	+++ (Selectivity Ratio >100 +++)	< 10	O=C(O)C(F)(F)F.O=C(O)CC(Cc1nc(CCCc2ccc3c(n2)NCCC3)no1)c1ccc2c(c1)OCO2 (stereo not drawn) [Example 16, 3-(1,3-benzodioxol-5-yl)-4-{3-[3-(5,6,7,8-tetrahydro-1,8-naphthyridin-2-yl)propyl]-1,2,4-oxadiazol-5-yl}butanoic acid]
+++ (Selectivity Ratio >100 +++)	+++ (Selectivity Ratio >100 +++)	< 10	O=C(O)C(F)(F)F.O=C(O)CC(Cc1nc(CCCc2ccc3c(n2)NCCC3)no1)c1cnc2ccccc2c1 (stereo not drawn) [Example 18, 3-quinolin-3-yl-4-{3-[3-(5,6,7,8-tetrahydro-1,8-naphthyridin-2-yl)propyl]-1,2,4-oxadiazol-5-yl}butanoic acid]
+++ (Selectivity Ratio >100 +++)	++ (Selectivity Ratio of 10-100 ++)	< 10	O=C(O)C(F)(F)F.O=C(O)CC(Cc1nc(CCCCNc2ccccn2)no1)c1cnc2ccccc2c1 (stereo not drawn) [Example 19, 3-quinolin-3-yl-4-{3-[4-(pyridin-2-ylamino)butyl]-1,2,4-oxadiazol-5-yl}-butanoic acid]
+++ (Selectivity Ratio >100 +++)	+++ (Selectivity Ratio >100 +++)	< 10	COc1cccc(C(CC(=O)O)Cc2nc(CCCc3ccc4c(n3)NCCC4)no2)c1.O=C(O)C(F)(F)F (stereo not drawn) [Example 20, 3-(3-methoxyphenyl)-4-{3-[3-(5,6,7,8-tetrahydro-1,8-naphthyridin-2-yl)propyl]-1,2,4-oxadiazol-5-yl}butanoic acid]
+++ (Selectivity Ratio >100 +++)	++ (Selectivity Ratio of 10-100 ++)	< 10	COc1cccc(C(CC(=O)O)Cc2nc(CCCCNc3ccccn3)no2)c1.O=C(O)C(F)(F)F (stereo not drawn) [Example 21, 3-(3-methoxyphenyl)-4-{3-[4-(pyridin-2-ylamino)butyl]-1,2,4-oxadiazol-5-yl}butanoic acid]
+++ (Selectivity Ratio >100 +++)	+++ (Selectivity Ratio >100 +++)	< 10	COc1ccc(C(CC(=O)O)Cc2nc(CCCc3ccc4c(n3)NCCC4)no2)cc1.O=C(O)C(F)(F)F (stereo not drawn) [Example 22, 3-(4-methoxyphenyl)-4-{3-[3-(5,6,7,8-tetrahydro-1,8-naphthyridin-2-yl)propyl]-1,2,4-oxadiazol-5-yl}butanoic acid]
+++ (Selectivity Ratio >100 +++)	++ (Selectivity Ratio of 10-100 ++)	< 10	COc1ccc(C(CC(=O)O)Cc2nc(CCCCNc3ccccn3)no2)cc1.O=C(O)C(F)(F)F (stereo not drawn) [Example 23, 3-(4-methoxyphenyl)-4-{3-[4-(pyridin-2-ylamino)butyl]-1,2,4-oxadiazol-5-yl}butanoic acid]
+++ (Selectivity Ratio >100 +++)	+++ (Selectivity Ratio >100 +++)	< 10	O=C(O)C(F)(F)F.O=C(O)CC(Cc1nc(CCCc2ccc3c(n2)NCCC3)no1)c1cccc(F)c1 (stereo not drawn) [Example 24, 3-(3-fluorophenyl)-4-{3-[3-(5,6,7,8-tetrahydro-1,8-naphthyridin-2-yl)propyl]-1,2,4-oxadiazol-5-yl}butanoic acid]
+++ (Selectivity Ratio >100 +++)	++ (Selectivity Ratio of 10-100 ++)	< 10	O=C(O)C(F)(F)F.O=C(O)CC(Cc1nc(CCCCNc2ccccn2)no1)c1cccc(F)c1 (stereo not drawn) [Example 25, 3-(3-fluorophenyl)-4-{3-[4-(pyridin-2-ylamino)butyl]-1,2,4-oxadiazol-5-yl}butanoic acid trifluoroacetate]
+++ (Selectivity Ratio >100 +++)	+++ (Selectivity Ratio >100 +++)	< 10	O=C(O)C(F)(F)F.O=C(O)CC(Cc1nc(CCCc2ccc3c(n2)NCCC3)no1)c1ccc(F)cc1 (stereo not drawn) [Example 26, 3-(4-fluorophenyl)-4-{3-[3-(5,6,7,8-tetrahydro-1,8-naphthyridin-2-yl)propyl]-1,2,4-oxadiazol-5-yl}butanoic acid trifluoroacetate]

SMILES	HT-29 β-6 Selectivity* (β6/β3) [1]	SPRA AIIbB3 Selectivity* IIbIIIa/β3 [2]	IC50 [3] [µM]
O=C(O)CC(Cc1nc(CCCCNc2ccccn2)no1)c1ccc2c(c1)OCO2 (stereo not drawn) [Example 17, 3-(1,3-benzodioxol-5-yl)-4-{3-[4-(pyridin-2-ylamino)butyl]-1,2,4-oxadiazol-5-yl}butanoic acid]	+++ (Selectivity Ratio >100 +++)	++ (Selectivity Ratio of 10-100 ++)	< 10
